Measurements reported in US9254268B2, “Compositions comprising lipophilic active compounds and method for their preparation” (SOLUBEST LTD., priority 2007, dated 2016).
Values belong to the compound of their own block, whether it stands above or below them.

Assays:
[1] = Thermal properties by Differential Scanning Calorimetry (DSC); details: for melting enthalpy (melting energy) / melting temperature (endothermic peak): DSC, after preparation
[2] = Particle size of aqueous dispersions by Dynamic Light Scattering; assay type: physicochemical; details: powder suspended in water
Method: (vii) Particle size of the nanodispersions: measurements were performed using Dynamic Light Scattering (DLS). The method was run on the Malvern Zen 3600, Zetasizer-nano series. The samples were prepared by suspending spray-dried powder in water (0.075-0.1%) at 25-30° C. First, water was added to the appropriate amount of the powder and the mixture was left for 15 min. Then, the suspension was magnetically stirred during 4 min at 300 rpm and 1 ml of the suspension was transferred to a cuvette for measurement. The cuvette was incubated inside the instrument during 5 min for stabilization prior measurement. A series of at least 5 repeating measurements was carried out at 25-30° C. Following parameters are reported from the analysis of volume weighed size distribution: polydispersity index (PDI), the diameter of the main fraction (Z-vol), volume % of main fraction.
The powders produced as described in Examples 1-9 have been suspended in deionized water as described in method (vii) of the section Materials and Methods.
In the Dynamic Light Scattering method, we used two main parameters to characterize the colloidal system: the hydrodynamic diameter of the particles and the width of distribution (polydispersity). […]

[3] = Albendazole dissolution in 0.05 M sodium lauryl sulfate; assay type: physicochemical; details: after 15 min
Method: (iv) The dissolution test was performed in accordance with USP Dissolution Method <711> and FDA Dissolution Methods for Drug Products using the paddle apparatus Distek model 2100A. The quantification was performed using UV spectrophotometer. Appropriate amount of spray dried powders or tablets as well as control powders or tablets were dissolved in 1000 ml of 0.05 M water solution of sodium lauryl sulfate, at 37° C., […]

[4] = Dissolution of resveratrol in Model Fasted Duodenal Solution (MFDS); assay type: physicochemical
Method: The Model Fasted Duodenal Solution (MFDS) was prepared as follows: a mixture of sodium chloride (3.093 g), sodium hydrophosphate (1.719 g) and sodium taurocholate (0.8065 g) was dissolved in deionized water (300 g) using ultrasonic bath. Lecithin (0.2925 g) was dissolved in 2 ml methylene chloride and added to the buffered solution of sodium taurocholate. The resulting emulsion was stirred for 5 min and then methylene chloride was evaporated under vacuum. The obtained clear micellar solution was adjusted to the volume of 500 ml by deionized water.
For the test procedure, the test resveratrol formulations or raw resveratrol powder (10 mg) were placed into 2 ml microcentrifuge tube and MFDS (1.8 ml) was added to the each tube. The tubes were gently shaken (about 50 rpm) at 37° C. and samplings were taken at 10, 20, 40, 60 and 120 min. For this purpose, the tubes were vortexed at the highest speed for 60 seconds and then centrifuged at 13 000 G for 60 seconds. The solid-free supernatant (0.4 ml) was mixed with 0.4 ml diluent (30% water adjusted to pH 2.5 with phosphoric acid and 70% acetonitrile) and this solution was inserted into an HPLC instrument for determination of resveratrol concentration.

- melting enthalpy (melting energy) [1]: 74.3 J/g
- melting temperature (endothermic peak) [1]: around 82 °C
SMILES: CC(C)OC(=O)C(C)(C)Oc1ccc(C(=O)c2ccc(Cl)cc2)cc1 [Fenofibrate starting material, Fenofibrate]

- broad DSC peak, range ([1]; after storage of six months, attributed to beginning of crystallization): 116-183 °C
SMILES: CC(C)c1c(C(=O)Nc2ccccc2)c(-c2ccccc2)c(-c2ccc(F)cc2)n1CC[C@@H](O)C[C@@H](O)CC(=O)O [Example 18, Atorvastatin]
- kind of dispersion formed in water (observation) [2]: coarse suspensions with large visible particles

SMILES: CCCSc1ccc2nc(NC(=O)OC)[nH]c2c1 [Raw albendazole crystalline powder, Albendazole]
- melting enthalpy (melting energy) [1]: 209.7 J/g
- melting temperature (endothermic peak) [1]: around 215 °C
- albendazole dissolved [3]: 16.6%

- Concentration of resveratrol ([4]; 10 min, MFDS, 37° C.): 76.65 µg/mL
- Concentration of resveratrol ([4]; 20 min): 103.15 µg/mL
- Concentration of resveratrol ([4]; 40 min): 119.3 µg/mL
- Concentration of resveratrol ([4]; 60 min): 121.05 µg/mL
- Concentration of resveratrol ([4]; 120 min): 155.6 µg/mL
SMILES: Oc1ccc(C=Cc2cc(O)cc(O)c2)cc1 [Resveratrol raw powder, Resveratrol]
